From patent publication EP0777471B1, “INHIBITION OF LEUKOTRIENE BIOSYNTHESIS WITH UREA DERIVATIVES” (MINNESOTA MINING AND MANUFACTURING COMPANY, priority 1994, dated 1996)
Values joined by “and” are separate entries in the source; they are usually repeats but may differ in a detail not shown here. Equal entries are not always repeated.

Assays:
[1] = tested on: production of Leukotriene B4; test: Rat ex vivo Leukotriene B4 inhibition (oral dosing, blood challenged with A23187); type: in vivo, Rats; settings: two hours post dose
Method in brief: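 Male CD rats (250 g, non-fasted) dosed orally with compound in PEG 400, 5 rats/group; blood drawn by cardiac puncture before and 2 h after dosing. Heparinized blood challenged with A23187 calcium ionophore, 30 min at 37°C; plasma LTB4 measured by radioimmunoassay. % inhibition = post-dose vs pre-dose LTB4 level.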

[2] = tested on: production of Leukotriene C4 in mouse peritoneal macrophages; test: In vitro mouse peritoneal macrophage Leukotriene C4 inhibition (zymosan-stimulated, LTC4 radioimmunoassay); type: cell-based; settings: Zymosan 50 µg/mL
Method in brief: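 Adherent peritoneal macrophages from female CD-1 mice were preincubated 15 minutes at 37°C with compound (10, 1 and 0.1 µM, duplicate; DMSO). They were then stimulated with 50 µg/mL zymosan for 1 to 2 hours. Leukotriene C4 released into the medium was measured by radioimmunoassay.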

IC50 [2] | Structure (SMILES) | %I ([1]; 5 mg/Kg) | %I ([1]; 50 mg/Kg) | %I ([1]; 25 mg/Kg) | %I ([1]; 10 mg/Kg) | %I ([1]; 20 mg/Kg)
< 1000 nM | CSc1ccc(NC(=O)N(C)O)cc1 [Compound 1, 1-Hydroxy-1-methyl-3-[4-(methylthio)phenyl]urea] | 18% | 87% |  |  | 
< 1000 nM | CSc1cccc(NC(=O)N(O)C(C)C)c1 [Compound 16, 1-hydroxy-1-(1-methylethyl)-3-[3-(methylthio)phenyl]urea] |  |  | 74% |  | 
600 nM | CC(C)N(O)C(=O)Nc1ccccc1 [Compound 17, 1-hydroxy-1-(1-methylethyl)-3-phenylurea] |  | 26% |  |  | 
800 nM | CC(C)N(O)C(=O)Nc1ccc(F)cc1 [Compound 18, 3-(4-fluorophenyl)-1-hydroxy-1-(1-methylethyl)urea] |  | 3% |  |  | 
< 1000 nM | CC(C)N(O)C(=O)Nc1ccc(Br)cc1 [Compound 19, 3-(4-bromophenyl)-1-hydroxy-1-(1-methylethyl)urea] |  | 3% |  |  | 
200 nM | CC(C)N(O)C(=O)Nc1ccccc1F [Compound 20, 3-(2-fluorophenyl)-1-hydroxy-1-(1-methylethyl)urea] |  | 19% |  |  | 
100 nM | Cc1cccc(NC(=O)N(O)C(C)C)c1 [Compound 21, 1-hydroxy-1-(1-methylethyl)-3-(3-methylphenyl)urea] |  |  |  |  | 
200 nM | COc1ccc(NC(=O)N(O)C(C)C)cc1 [Compound 23, 1-hydroxy-3-(4-methoxyphenyl)-1-(1-methylethyl)urea] |  | 45% |  |  | 

The remaining lines, values behind:

Structure (SMILES) | IC50 [2] | %I ([1]; 5 mg/Kg) | %I ([1]; 50 mg/Kg) | %I ([1]; 25 mg/Kg) | %I ([1]; 10 mg/Kg) | %I ([1]; 20 mg/Kg)
COc1cccc(NC(=O)N(C)O)c1 [Compound 5, 1-hydroxy-3-(3-methoxyphenyl)-1-methylurea] | 200 nM |  | 82% |  |  | 
CN(O)C(=O)Nc1cccc(Br)c1 [Compound 6, 3-(3-bromophenyl)-1-hydroxy-1-methylurea] | < 100 nM | 39% | 47% |  |  | 
Cc1cccc(NC(=O)N(C)O)c1 [Compound 7, 1-hydroxy-1-methyl-3-(3-methylphenyl)urea] | < 1000 nM | 32% |  |  |  | 
CN(O)C(=O)Nc1cccc(F)c1 [Compound 8, 3-(3-fluorophenyl)-1-hydroxy-1-methylurea] | 400 nM | 29% |  |  |  | 
CN(O)C(=O)Nc1cccc([N+](=O)[O-])c1 [Compound 9, 1-hydroxy-1-methyl-3-(3-nitrophenyl)urea] | 700 nM |  |  | 34% |  | 
CN(O)C(=O)Nc1ccccc1 [Compound 10, 1-hydroxy-1-methyl-3-phenylurea] | < 1000 nM |  | 41% | 23% |  | 
CC(C)N(O)C(=O)Nc1ccccc1Cl [Compound 24, 3-(2-chlorophenyl)-1-hydroxy-1-(1-methylethyl)urea] | 200 nM |  | 29% |  |  | 
Cc1ccccc1NC(=O)N(O)C(C)C [Compound 25, 1-hydroxy-1-(1-methylethyl)-3-(2-methylphenyl)urea] | 600 nM |  | 45% and 79% | 44% | 13% | 
CC(C)CCN(O)C(=O)Nc1ccccc1 [Compound 44, 1-hydroxy-1-(3-methylbutyl)-3-phenylurea] | < 1000 nM |  | 18% |  |  | 
CC(C)CN(O)C(=O)Nc1ccccc1 [Compound 54, 1-Hydroxy-1-(2-methylpropyl)-3-phenylurea] | 1300 nM |  | 42% |  |  | 
CN(O)C(=O)Nc1cccc(S(C)(=O)=O)c1 [Compound 59, 1-Hydroxy-1-methyl-3-[3-(methylsulfonyl)phenyl]urea] | 300 nM | 9% | 65% and 87% | 49% | 23% | 20%
